Test results: patent publication US5668161A, “Substituted thiazoles for the treatment of inflammation” (G.D. Searle & Co., priority 1996, dated 1997)
Where two headings read alike, the source gives them in different places.

Tests used:
[1] = target: human COX-I (Homo sapiens, UniProt P23219); assay: COX I activity in vitro, human (PGE2 by ELISA)
[2] = target: T1, murine COX-I (Mus musculus, UniProt P22437); assay: COX I activity in vitro, murine (PGE2 by ELISA)
T1 sequence (P22437 27-602): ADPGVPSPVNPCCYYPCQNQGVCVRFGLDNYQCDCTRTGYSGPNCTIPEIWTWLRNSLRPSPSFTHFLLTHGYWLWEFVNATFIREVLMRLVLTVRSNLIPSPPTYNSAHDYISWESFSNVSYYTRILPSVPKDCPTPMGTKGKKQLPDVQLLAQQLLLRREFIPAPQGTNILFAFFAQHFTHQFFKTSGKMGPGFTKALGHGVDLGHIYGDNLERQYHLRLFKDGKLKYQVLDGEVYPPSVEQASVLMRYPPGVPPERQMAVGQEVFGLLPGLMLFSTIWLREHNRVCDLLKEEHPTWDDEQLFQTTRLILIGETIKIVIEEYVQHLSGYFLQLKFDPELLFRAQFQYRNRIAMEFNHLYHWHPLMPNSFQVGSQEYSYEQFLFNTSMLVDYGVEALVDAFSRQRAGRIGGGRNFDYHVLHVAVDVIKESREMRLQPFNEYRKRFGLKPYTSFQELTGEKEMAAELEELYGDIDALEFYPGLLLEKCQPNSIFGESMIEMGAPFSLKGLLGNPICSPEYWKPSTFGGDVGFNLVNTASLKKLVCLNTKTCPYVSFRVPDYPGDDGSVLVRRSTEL

[3] = target: T2, human COX-II (Homo sapiens, UniProt P35354); assay: COX II activity in vitro, human (PGE2 by ELISA)
T2 sequence (P35354 18-604): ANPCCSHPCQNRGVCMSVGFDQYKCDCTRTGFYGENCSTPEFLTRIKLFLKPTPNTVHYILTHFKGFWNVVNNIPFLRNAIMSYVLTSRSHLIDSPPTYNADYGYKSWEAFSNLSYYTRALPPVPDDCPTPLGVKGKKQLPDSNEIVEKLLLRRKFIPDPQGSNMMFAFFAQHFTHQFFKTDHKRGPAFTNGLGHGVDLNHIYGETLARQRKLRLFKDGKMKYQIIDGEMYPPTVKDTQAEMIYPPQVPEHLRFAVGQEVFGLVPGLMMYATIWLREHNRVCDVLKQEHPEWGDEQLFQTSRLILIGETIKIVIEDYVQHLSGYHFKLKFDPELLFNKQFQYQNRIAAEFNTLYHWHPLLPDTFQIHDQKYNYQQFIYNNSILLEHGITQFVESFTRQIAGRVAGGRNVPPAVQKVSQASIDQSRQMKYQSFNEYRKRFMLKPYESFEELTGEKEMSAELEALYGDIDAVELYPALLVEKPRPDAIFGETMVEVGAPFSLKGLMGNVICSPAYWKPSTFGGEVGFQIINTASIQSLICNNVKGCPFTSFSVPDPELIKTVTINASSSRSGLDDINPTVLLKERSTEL

[4] = target: T3, murine COX-II (Mus musculus, UniProt Q05769); assay: biochemical
T3 sequence (Q05769 18-604): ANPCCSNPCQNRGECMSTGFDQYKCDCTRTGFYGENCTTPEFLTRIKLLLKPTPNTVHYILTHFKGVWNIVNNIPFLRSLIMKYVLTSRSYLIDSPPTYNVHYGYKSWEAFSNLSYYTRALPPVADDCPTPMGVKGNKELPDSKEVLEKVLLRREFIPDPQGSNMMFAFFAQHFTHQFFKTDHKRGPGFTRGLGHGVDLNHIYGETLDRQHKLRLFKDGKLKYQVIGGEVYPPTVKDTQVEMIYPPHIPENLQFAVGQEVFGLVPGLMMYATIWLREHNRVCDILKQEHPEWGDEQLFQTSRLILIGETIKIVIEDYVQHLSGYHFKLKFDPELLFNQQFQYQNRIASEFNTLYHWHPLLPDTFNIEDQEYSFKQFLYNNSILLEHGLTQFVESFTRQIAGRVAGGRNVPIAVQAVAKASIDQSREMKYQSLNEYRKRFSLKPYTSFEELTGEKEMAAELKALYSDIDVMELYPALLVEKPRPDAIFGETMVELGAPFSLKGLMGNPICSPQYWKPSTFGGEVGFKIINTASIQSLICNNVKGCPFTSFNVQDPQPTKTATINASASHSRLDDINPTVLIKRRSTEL

[5] = test system: carrageenan foot edema; assay: Rat Carrageenan Foot Pad Edema Test; assay type: in vivo, rat (Male Sprague-Dawley); conditions: oral, 3 hours after carrageenan, read-out: RAT PAW EDEMA % Inhibition; for inhibition at 20 mg/kg: @ 20 mg/kg body weight
Experimental: Male Sprague-Dawley rats were selected in each group so that the average body weight was as close as possible. Rats were fasted with free access to water for over sixteen hours prior to the test. […] One hour later a subplantar injection of 0.1 mL of 1% solution of carrageenan/sterile 0.9% saline was administered and the volume of the injected foot was measured with a displacement plethysmometer connected to a pressure transducer with a digital indicator. Three hours after the injection of the carrageenan, the volume of the foot was again measured. […] Rat Carrageenan-induced Analgesia Test

Sequence of human COX-I (P23219 24-599): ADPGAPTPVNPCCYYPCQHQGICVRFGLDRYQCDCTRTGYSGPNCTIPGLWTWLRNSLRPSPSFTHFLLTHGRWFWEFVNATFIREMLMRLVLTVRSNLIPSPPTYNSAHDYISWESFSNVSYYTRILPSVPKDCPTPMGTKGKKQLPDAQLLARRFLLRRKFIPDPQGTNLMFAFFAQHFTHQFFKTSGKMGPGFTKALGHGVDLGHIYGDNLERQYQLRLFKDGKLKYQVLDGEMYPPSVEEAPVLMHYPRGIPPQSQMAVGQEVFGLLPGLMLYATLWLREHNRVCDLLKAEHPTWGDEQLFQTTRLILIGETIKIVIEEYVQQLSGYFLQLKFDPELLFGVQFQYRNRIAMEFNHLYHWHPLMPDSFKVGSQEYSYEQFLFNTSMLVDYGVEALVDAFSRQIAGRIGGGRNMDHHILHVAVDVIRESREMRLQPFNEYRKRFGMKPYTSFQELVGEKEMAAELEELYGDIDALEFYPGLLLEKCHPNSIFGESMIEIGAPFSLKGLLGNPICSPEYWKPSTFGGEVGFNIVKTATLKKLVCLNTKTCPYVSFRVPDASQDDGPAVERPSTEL

IC50 [1]	IC50 [2]	IC50 [3]	IC50 ([1]; read-out: COX I ID50, human (h), 10 μM arachidonic acid)	IC50 [4]	SMILES	inhibition at 20 mg/kg [5]	inhibition at 10 mg/kg [5]
> 10 µM	> 100 µM	< 0.1 µM	–	–	CS(=O)(=O)c1ccc(-c2sc(COc3ccc(Cl)cc3)nc2-c2ccc(F)cc2)cc1 [Example 1, 2-((4-Chlorophenoxy)methyl)-4-(4-fluorophenyl)-5-(4-methylsulfonylphenyl)thiazole]	–	–
–	–	< 0.1 µM	–	–	CS(=O)(=O)c1ccc(-c2sc(-c3ccccc3Cl)nc2-c2ccccc2)cc1 [Example 2, 2-(2-Chlorophenyl)-4-phenyl-5-(4-methylsulfonylphenyl)thiazole]	–	–
–	–	< 0.1 µM	–	–	CS(=O)(=O)c1ccc(-c2sc(-c3ccccc3Cl)nc2-c2cccc(F)c2)cc1 [Example 3, 2-(2-Chlorophenyl)-4-(3-fluorophenyl)-5-(4-methylsulfonylphenyl)thiazole]	–	–
–	6.2 µM	< 0.1 µM	70 µM	< 0.1 µM	CS(=O)(=O)c1ccc(-c2sc(-c3ccccc3Cl)nc2-c2ccc(F)cc2F)cc1 [Example 4, 4-(2,4-Difluorophenyl)-2-(2-chlorophenyl)-5-(4-methylsulfonylphenyl)thiazole]	–	–
> 100 µM	–	< 0.1 µM	–	–	Cc1ccccc1-c1nc(-c2ccccc2Cl)sc1-c1ccc(S(C)(=O)=O)cc1 [Example 5, 2-(2-Chlorophenyl)-4-(2-methylphenyl)-5-(4-methylsulfonylphenyl)thiazole]	–	–
> 100 µM	–	< 0.1 µM	–	–	CS(=O)(=O)c1ccc(-c2sc(-c3ccccc3Cl)nc2-c2ccccc2Cl)cc1 [Example 9, 2-(2-Chlorophenyl)-4-(2-chlorophenyl)-5-(4-methylsulfonylphenyl)thiazole]	–	–
> 100 µM	–	< 0.1 µM	–	–	CS(=O)(=O)c1ccc(-c2sc(-c3ccccc3Cl)nc2-c2ccc(Cl)cc2)cc1 [Example 10, 2-(2-Chlorophenyl)-4-(4-chlorophenyl)-5-(4-methylsulfonylphenyl)thiazole]	14%	–
> 100 µM	–	< 0.1 µM	–	–	COc1ccc(-c2nc(-c3ccccc3Cl)sc2-c2ccc(S(C)(=O)=O)cc2)cc1 [Example 11, 2-(2-Chlorophenyl)-4-(4-methoxyphenyl)-5-(4-methylsulfonylphenyl)thiazole]	–	–
> 10 µM	1.6 µM	< 0.1 µM	–	< 0.1 µM	CS(=O)(=O)c1ccc(-c2sc(-c3ccc(F)c(Cl)c3)nc2-c2ccc(F)cc2)cc1 [Example 12, 2-(3-Chloro-4-fluorophenyl)-4-(4-fluorophenyl)-5-(4-methylsulfonylphenyl)thiazole]	53%	–
> 100 µM	39.8 µM	0.6 µM	–	0.5 µM	CS(=O)(=O)c1ccc(-c2sc(C(Br)S(=O)(=O)c3cccs3)nc2-c2ccc(F)cc2)cc1 (stereo not shown) [Example 14]	–	–
> 100 µM	–	0.2 µM	–	–	Cc1ccc(-c2nc(-c3ccccc3Cl)sc2-c2ccc(S(C)(=O)=O)cc2)cc1 [Example 15, 2-(2-Chlorophenyl)-5-(4-methylsulfonylphenyl)-4-(4-methylphenyl)thiazole]	–	–
–	> 10 µM	< 0.1 µM	–	< 0.1 µM	CS(=O)(=O)c1ccc(-c2sc(CCCc3ccc(Br)cc3)nc2-c2ccc(F)cc2)cc1 [Example 21]	–	–
1.1 µM	0.7 µM	< 0.1 µM	–	< 0.1 µM	CS(=O)(=O)c1ccc(-c2sc(C(F)(F)F)nc2-c2ccc(F)cc2)cc1 [Example 23, 4-(4-Fluorophenyl)-5-(4-methylsulfonylphenyl)-2-trifluoromethylthiazole]	39.5%	–
2.6 µM	–	< 0.1 µM	–	–	CS(=O)(=O)c1ccc(-c2sc(-c3ccc(Br)s3)nc2-c2ccc(F)cc2)cc1 [Example 25, 2-(5'-Bromo-2'-thienyl)-4-(4-fluorophenyl)-5-(4-methylsulfonylphenyl)thiazole]	–	–
0.7 µM	–	< 0.1 µM	–	–	NS(=O)(=O)c1ccc(-c2sc(-c3ccccc3Cl)nc2-c2ccc(F)cc2)cc1 [Example 32, 4-[4-(4-Fluorophenyl)-2-(2-chlorophenyl)-5-thiazolyl]benzensulfonamide]	–	–
< 0.1 µM	–	–	–	–	NS(=O)(=O)c1ccc(-c2sc(COc3cc(Cl)cc(Cl)c3)nc2-c2ccc(F)cc2)cc1 [Example 34, 4-[2-((3,5-Dichlorophenoxy)methyl)-4-(4-fluorophenyl)-5-thiazolyl]benezenesulfonamide]	–	–
> 100 µM	–	< 0.1 µM	–	–	CS(=O)(=O)c1ccc(-c2sc(COc3cccc(Cl)c3)nc2-c2ccccc2F)cc1 [Example 36, 2-(3-Chlorophenoxy)methyl-4-(2-fluorophenyl)-5-[4-(methylsulfonyl)phenyl]thiazole]	–	–
> 100 µM	–	< 0.1 µM	–	–	CS(=O)(=O)c1ccc(-c2sc(COc3ccccc3Cl)nc2-c2ccc(F)cc2)cc1 [Example 38, 2-((2-Chlorophenoxy)methyl)-4-(4-fluorophenyl)-5-(4-methylsulfonylphenyl)thiazole]	–	–
> 100 µM	–	< 0.1 µM	–	–	CS(=O)(=O)c1ccc(-c2sc(-c3ccccc3Cl)nc2-c2ccc(Br)cc2)cc1 [Example 40, 4-(4-Bromophenyl)-2-(2-chlorophenyl)-5-[4-(methylsulfonyl)phenyl]thiazole]	–	–
> 100 µM	–	< 0.1 µM	–	–	COc1ccc(OCc2nc(-c3ccc(F)cc3)c(-c3ccc(S(C)(=O)=O)cc3)s2)cc1 [Example 41, 4-(4-Fluorophenyl)-2-[(4-methoxyphenoxy)methyl]-5-[4-(methylsulfonyl)phenyl]thiazole]	4%	–
–	11.9 µM	–	–	0.3 µM	CC(C)(C)Nc1nc(-c2ccc(F)cc2)c(-c2ccc(S(C)(=O)=O)cc2)s1 [Example 51, 2-tert-Butylamino-4-(4-fluorophenyl)-5-(4-methylsulfonylphenyl)thiazole]	–	14%
–	> 100 µM	–	–	0.5 µM	CS(=O)(=O)c1ccc(-c2sc(Nc3cc(Cl)cc(Cl)c3)nc2-c2ccc(F)cc2)cc1 [Example 52, 2-(3,5-Dichlorophenylamino)-4-(4-fluorophenyl)-5-(4-methylsulfonylphenyl)thiazole]	–	7%
> 100 µM	> 100 µM	< 0.1 µM	–	< 0.1 µM	CS(=O)(=O)c1ccc(-c2nc(C(F)(F)F)sc2-c2ccc(F)cc2)cc1 [Example 56, 5-(4-fluorophenyl)-4-(4-methylsulfonylphenyl)-2-trifluoromethylthiazole]	–	20%
> 100 µM	4.9 µM	< 0.1 µM	–	> 0.1 µM	CS(=O)(=O)c1ccc(-c2sc(-c3c(F)c(F)c(F)c(F)c3F)nc2-c2ccc(F)cc2)cc1 [Example 57]	–	2%
